biological target: human IDO1 (Homo sapiens, UniProt P14902); assay: Assessment of human IDO-1 inhibitory activity in Hela cells (Interferon-gamma stimulated HeLa cells, Ehrlich reagent, absorbance 490 nm); format: cell-based; parameters: endogenous in cells; host or cells: HeLa cells stimulated with interferon-gamma; settings: Hela Human IDO-1 cellular assay
Summary of the method: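 HeLa cells pre-incubated with compound 1 h at 37 °C, then stimulated with human IFN-γ (10 ng/ml final) or murine IFN-γ (5 ng/ml final) for 18 h. Kynurenine read with Ehrlich reagent at 490 nm after TCA (3%) and 50 °C treatment; IC50 normalized to unstimulated (100%) and IFN-γ-only (0%) wells.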

human IDO1, sequence (P14902 whole entry): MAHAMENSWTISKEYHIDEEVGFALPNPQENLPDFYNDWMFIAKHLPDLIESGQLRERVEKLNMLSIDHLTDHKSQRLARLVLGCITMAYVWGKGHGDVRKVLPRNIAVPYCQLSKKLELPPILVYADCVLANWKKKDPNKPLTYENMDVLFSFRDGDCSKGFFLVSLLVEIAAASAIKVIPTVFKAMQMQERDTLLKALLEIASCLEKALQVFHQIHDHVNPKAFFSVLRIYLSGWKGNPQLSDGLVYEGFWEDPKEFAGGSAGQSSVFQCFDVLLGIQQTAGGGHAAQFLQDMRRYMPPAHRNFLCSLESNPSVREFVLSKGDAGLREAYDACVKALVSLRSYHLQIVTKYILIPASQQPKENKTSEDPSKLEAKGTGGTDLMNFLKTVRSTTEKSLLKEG

Structure (SMILES) | IC50 [nM]
CCC(CC(=O)O)c1cc(Nc2cnc(OC)nc2)c(N(CC)C2CCOCC2)cc1F (single isomer, unassigned) [Example 859, 3-(4-(ethyl (tetrahydro-2H-pyran-4-yl)amino)-2-fluoro-5-((2-methoxy-pyrimidin-5-yl)amino)phenyl) pentanoic acid] | < 5
COCC(CC(=O)O)c1ccc(N2C[C@@H]3C[C@H]2CN3C(=O)OC(C)(C)C)c(Nc2ccc(C#N)cc2)c1 (single isomer, unassigned) [Example 451 Diastereomer 1] | < 50
CCN(c1ccc([C@@H](COC)CC(=O)O)cc1Nc1ccc(C#N)cc1C)C1CCOCC1 (single isomer, unassigned) [Example 367] | < 50
CCCN(c1ccc([C@@H](CC)CC(=O)O)cc1Nc1ccc(OC)nc1)C1CCOCC1 (single isomer, unassigned) [Example 542] | < 5
CCOc1ncc(Nc2cc(C(CC)CC(=O)O)ccc2N(CC)C2CCOC2)cn1 (single isomer, unassigned) [Example 945 D1, 3-(3-((2-Ethoxypyrimidin-5-yl)amino)-4-(ethyl(tetrahydrofuran-3-yl)amino)phenyl)pentanoic acid] | < 50
CCN(c1ccc(C(C)(C)CC(=O)O)cc1Nc1ccc(C#N)cc1)C1CCS(=O)(=O)CC1 [Example 178, 3-(3-((4-cyanophenyl)amino)-4-((1,1-dioxidotetrahydro-2H-thiopyran-4-yl)(ethyl)amino)phenyl)-3-melhylbutanoic acid] | < 50
CCCN(c1ccc([C@@H](COC)CC(=O)O)cc1NC(=O)Nc1ccc(C#N)cc1)C1CCOCC1 (single isomer, unassigned) [Example 567] | < 50
CCC(CC(=O)O)c1ccc(N(C)C2CCOCC2)c(Nc2cnc(OC)nc2)c1 (single isomer, unassigned) [Example 871, 3-(3-((2-methoxy-pyrimidin-5-yl)amino)-4-(methyl(tetra-hydro-2H-pyran-4-yl)amino)phenyl) pentanoic acid] | > 50
CCCN(c1ccc([C@@H](COC)CC(=O)O)cc1NC(=O)Nc1ccc(Cl)cc1F)C1CCOCC1 (single isomer, unassigned) [Example 566] | < 50
CCCN(c1ccc(C(CC)CC(=O)O)cc1Nc1ccc(C#N)cc1)C1CCS(=O)(=O)CC1 (single isomer, unassigned) [Example 12 Enantiomer 1, 3-(3-((4-Cyanophenyl)amino)-4-((1,1-dioxidotetrahydro-2H-thiopyran-4-yl)(propyl)amino)phenyl)pentanoic acid] | < 5
CCC(CC(=O)O)c1ccc(N2C[C@@H]3C[C@H]2CN3C(=O)OC(C)(C)C)c(Nc2ccc(C#N)cc2)c1 (single isomer, unassigned) [Example 443 Diastereomer 2] | < 50
CCCN(c1ccc(C(COC)CC(=O)O)cc1Nc1ccc(Cl)cc1)C1CCS(=O)(=O)CC1 (single isomer, unassigned) [Example 183, 3-(3-((4-chlorophenyl)amino)-4-((1,1-dioxidotetrahydro-2H-thiopyran-4-yl)(propyl)amino)phenyl)-4-methoxybutanoic acid] | < 50
CCC(CC(=O)O)c1cnc(N(CC)C2CCOCC2)c(Nc2ccc(Cl)cc2)c1 (racemic) [Example 1380] | < 5
CCN(c1ccc([C@@H](CC(=O)O)C(F)(F)F)cc1Nc1cnc(OC)nc1)C1CCOCC1 (single isomer, unassigned) [Example 601] | < 5
CC[C@H](CC(=O)O)c1ccc(N(CC)C2CCOCC2)c(Nc2ccc(OC)cn2)c1 (single isomer, unassigned) [Example 505] | < 50
CCN(c1ccc([C@@H](COC)CC(=O)O)cc1Nc1ncc(F)cc1F)C1CCOCC1 (single isomer, unassigned) [Example 358] | < 50
CC[C@@H](CC(=O)O)c1ccc(N(CC)C2CCOCC2)c(Nc2cnc(C)nc2)c1 (single isomer, unassigned) [Example 1361] | < 5
CCOc1ccc(Nc2cc([C@@H](CC)CC(=O)O)ccc2N(CC)C2CCOCC2)cn1 (single isomer, unassigned) [Example 466] | < 5
CCC(CC(=O)O)c1ccc(N(CC)C2CCCOC2)c(Nc2cnc(OC)nc2)c1 (single isomer, unassigned) [Example 62, 3-(4-(ethyl(tetrahydro-2H-pyran-3-yl)amino)-3-((2-methoxypyrimidin-5-yl)amino)phenyl)pentanoic acid] | < 5
CC[C@@H](CC(=O)O)c1ccc(N(CC)C2CCOCC2)c(Nc2ccc(C#N)cn2)c1 (single isomer, unassigned) [Example 461] | < 5

Structure (SMILES) | IC50 [nM]
CCN(c1ccc([C@@H](COC)CC(=O)O)cc1Nc1ccc(C(F)(F)F)cc1)C1CCOCC1 (single isomer, unassigned) [Example 364] | < 5
CC[C@H](CC(=O)O)c1ccc(N(CC)C2CCOCC2)c(Nc2cnc(N(C)C)nc2)c1 (single isomer, unassigned) [Example 502] | < 50
CCCN(c1ccc(C(C)(C)CC(=O)O)cc1Nc1cnc(OCC)nc1)C1CCS(=O)(=O)CC1 [Example 188, 3-(4-((1,1-dioxidotetrahydro-2H-thiopyran-4-yl)(propyl)amino)-3-((2-ethoxypyrimidin-5-yl)amino)phenyl)-3-methylbutanoic acid] | > 50
CCN(c1ccc(C(CC(=O)O)C2CC2)cc1NC(=O)Nc1ccc(C)cc1)C1CCOCC1 (single isomer, unassigned) [Example 40 Enantiomer 2, 3-Cyclopropyl-3-(4-(ethyl(tetrahydro-2H-pyran-4-yl)amino)-3-(3-(p-tolyl)ureido)phenyl)propanoic acid] | < 50
COCC(CC(=O)O)c1ccc(N2CCOC[C@H]2C(C)C)c(Nc2ccc(Cl)cc2)c1 (single isomer, unassigned) [Example 910] | < 50
COCC(CC(=O)O)c1ccc(N(C)C2CCOCC2)c(Nc2ccc(C#N)c(F)c2)c1 (single isomer, unassigned) [Example 875, 3-(3-((4-cyano-3-fluorophenyl)amino)-4-(methyl(tetrahydro-2H-pyran-4-yl)amino)phenyl)-4-methoxybutanoic acid] | < 50
CC(C)CN(CC(C)C)c1ccc(C(C)(C)CC(=O)O)cc1Nc1ccc(Cl)cc1 [Example 145, 3-(3-((4-Chlorophenyl)amino)-4-(diisobutylamino)phenyl)-3-methylbutanoic acid] | < 5
CCC(CC(=O)O)c1ccc(N(CCOC)C2CCOCC2)c(Nc2ccc(Cl)cc2)c1 (single isomer, unassigned) [Example 1257 E1, 3-(3-((4-Chlorophenyl)amino)-4-((2-methoxyethyl)(tetrahydro-2H-pyran-4-yl)amino)phenyl)pentanoic acid] | < 5
CCC(CC(=O)O)c1cc(Nc2ccc(C#N)cn2)c(N(CC)C2CCOCC2)cc1F (single isomer, unassigned) [Example 862, 3-(5-((5-cyanopyridin-2-yl)amino)-4-(ethyl (tetrahydro-2H-pyran-4-yl)amino)-2-fluorophenyl) pentanoic acid] | < 5
CCN(c1ccc(C(CC(=O)O)C2CC2)cc1Nc1ccc(C#N)cc1)C1CCOCC1 (single isomer, unassigned) [Example 34, 3-(3-((4-cyanophenyl)amino)-4-(ethyl(tetrahydro-2H-pyran-4-yl)amino)phenyl)-3-cyclopropylpropanoic acid] | < 5
CCN(c1ccc(C(C)CC(=O)O)cc1Nc1cnc(OC(C)C)nc1)C1CCOCC1 (single isomer, unassigned) [Example 622, 3-(4-(ethyl(tetrahydro-2H-pyran-4-yl)amino)-3-((2-isopropoxypyrimidin-5-yl)amino)phenyl)butanoic acid] | > 50
CCCN(c1ccc([C@H](COC)CC(=O)O)cc1NC(=O)Nc1ccc(Cl)cc1F)C1CCOCC1 (single isomer, unassigned) [Example 576] | < 50
CCN(c1ccc([C@H](COC(C)C)CC(=O)O)cc1Nc1ccc(C#N)cc1)C1CCOCC1 (single isomer, unassigned) [Example 329] | < 50
CCN(c1c(F)cc(C(COC)CC(=O)O)cc1NC(=O)Nc1ccc(Cl)cc1F)C1CCOCC1 (single isomer, unassigned) [Example 919, 3-(3-(3-(4-Chloro-2-fluorophenyl)ureido)-4-(ethyl(tetrahydro-2H-pyran-4-yl)amino)-5-fluorophenyl)-4-methoxybutanoic acid] | > 50
CCCN(c1ccc([C@H](COC)CC(=O)O)cc1Nc1ccc(Cl)cc1)C1CCOCC1 (single isomer, unassigned) [Example 574] | < 5
CCCN(c1ccc([C@H](CC)CC(=O)O)cc1Nc1ccc2c(c1)OC(F)(F)O2)C1CCOCC1 (single isomer, unassigned) [Example 550] | < 5
CCC1COCCN1c1ccc([C@@H](COC)CC(=O)O)cc1Nc1ccc(Cl)cc1 (single isomer, unassigned) [Example 1300] | < 50
CCCN(c1ccc(C(CC)CC(=O)O)cc1Nc1cnc(OCC)nc1)C1CCS(=O)(=O)CC1 (single isomer, unassigned) [Example 13 Enantiomer 1, 3-(4-((1,1-Dioxidotetrahydro-2h-thiopyran-4-yl)(propyl)amino)-3-((2-ethoxypyrimidin-5-yl)amino)phenyl)pentanoic acid] | < 50
CCCN(c1ccc(C(C)(C)CC(=O)O)cc1Nc1ccc(C#N)cc1)C1CCOCC1 [Example 22, 3-(3-((4-cyanophenyl)amino)-4-(propyl(tetrahydro-2H-pyran-4-yl)amino)phenyl)-3-methylbutanoic acid] | < 5
CCC(CC(=O)O)c1ccc(N(CC)C2CCCOC2)c(Nc2ccc(C#N)cc2)c1 (single isomer, unassigned) [Example 61, 3-(3-((4-cyanophenyl)amino)-4-(ethyl(tetrahydro-2H-pyran-3-yl)amino)phenyl)pentanoic acid] | < 5

Reference: patent publication US9790169B2, “IDO inhibitors” (BRISTOL-MYERS SQUIBB COMPANY, priority 2015, dated 2017)
